From article PMC4898691, “Structure of a Berberine Bridge Enzyme-Like Enzyme with an Active Site Specific to the Plant Family Brassicaceae” (PLoS ONE, 2016)

Molecular target: T1, AtBBE-like 28 (Arabidopsis thaliana, UniProt Q9FI21)
T1 construct: gene At5g44440; two chains in asymmetric unit
T1 sequence (Q9FI21 28-533): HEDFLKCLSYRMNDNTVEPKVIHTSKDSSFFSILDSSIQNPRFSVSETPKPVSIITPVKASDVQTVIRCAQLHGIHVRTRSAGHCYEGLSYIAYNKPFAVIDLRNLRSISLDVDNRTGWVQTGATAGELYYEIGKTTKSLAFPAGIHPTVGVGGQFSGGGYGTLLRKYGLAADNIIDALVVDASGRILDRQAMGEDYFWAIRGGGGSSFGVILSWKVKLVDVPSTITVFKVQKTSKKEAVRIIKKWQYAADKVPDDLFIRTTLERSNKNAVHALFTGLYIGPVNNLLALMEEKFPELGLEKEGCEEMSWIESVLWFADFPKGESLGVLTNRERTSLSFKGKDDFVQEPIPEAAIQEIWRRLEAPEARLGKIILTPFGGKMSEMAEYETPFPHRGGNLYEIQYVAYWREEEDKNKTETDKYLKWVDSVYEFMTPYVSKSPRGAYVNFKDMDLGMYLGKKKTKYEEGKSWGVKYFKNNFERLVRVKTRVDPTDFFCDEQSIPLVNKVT
Experiment: X-ray crystallography ([…] A)
Type: binding
Details: covalent; mono-covalent, His111 to flavin 8alpha-position; crystals at 277 K, HEPES pH 7.0, Jeffamine ED 2001

Compound: Cc1cc2nc3c(=O)[nH]c(=O)nc-3n(C[C@H](O)[C@H](O)[C@H](O)COP(=O)(O)OP(=O)(O)OC[C@H]3O[C@@H](n4cnc5c(N)ncnc54)[C@H](O)[C@@H]3O)c2cc1C [FAD]
- X-ray crystallography (1.85 A): the covalent linkage established by the conserved GGHD motif was clearly seen in the crystal structure
